Read-outs that look alike come from different tables or passages of the source.
Experiments:
[1] = test system: HCV replicon (BB7 sequence) in Huh-7-Clone A cells; assay: HCV replicon assay: ELISA of NS5A protein in replicon-containing cells (Inhibition of Viral RNA Replication); type: cell-based; conditions: Hepatitis C virus, read-out: Replicon
In short: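 Huh-7-Clone A cells carrying subgenomic BB7 HCV replicon (G418-selectable) incubated 72 h with compound. NS5A protein quantified by cell ELISA: glutaraldehyde fixation, anti-NS5A monoclonal plus HRP secondary, TMB read at OD 650 nm. EC50 derived from 8-point serial dilution dose curve.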

HCV NS5B = target: T1, HCV NS5B (Hepatitis C virus genotype 1b, UniProt Q9WMX2); assay: Inhibition of viral RNA-dependent RNA polymerase (RdRp), in vitro biochemical assay; design: species or system HCV genotype 1b virus (BB7); conditions: read-out: HCV pol-BB7 IC50
T1 construct: fusion protein, of which the carboxyl terminal 21 amino acids were removed to enhance its solubility; His tag (GSHHHHHH); made in house; host or cells: E. coli
In short: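 Purified recombinant NS5B from a genotype 1b consensus (BB7), His-tagged, E. coli-expressed, with the C-terminal 21 residues deleted. Inhibition of RdRp activity in vitro was measured, and IC50 is the concentration giving 50% inhibition.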

[2] = Huh-7-Clone A, NS5A ELISA, 72-hour incubation, ranges of EC50
[3] = purified His-tagged NS5B (BB7), carboxyl terminal 21 amino acids removed
[4] = HCV replicon assay, ranges of 50% effective concentration (EC50)
[5] = HCV NS5B polymerase, BB7 (genotype 1b), values given as range classes A-D
[6] = ranges of EC50 in HCV replicon assay
[7] = HCV replicon assay, ranges of EC50
[8] = HCV NS5B RdRp, BB7, class symbols A-D
[9] = HCV NS5B RdRp, BB7 (genotype 1b), reported as class symbols
[10] = HCV NS5B RdRp, BB7, activity class
[11] = HCV NS5B RdRp, BB7, reported as range class

CNC(=O)c1c(-c2ccc(F)cc2)oc2cc(N(Cc3cscn3)S(C)(=O)=O)c(OC(C)C)cc12 [Example 36, 2-(4-Fluoro-phenyl)-5-isopropoxy-6-(methanesulfonyl-thiazol-4-ylmethyl-amino)-benzofuran-3-carboxylic acid methylamide]
EC50 [1, 2]: < 1000 nM
IC50 (HCV NS5B; [3]): ≤ 500 nM

CNC(=O)c1c(-c2ccc(F)cc2)oc2cc(N3CCOCC3)c(OC(C)C)cc12 [Example 24, 2-(4-Fluoro-phenyl)-5-isopropoxy-6-morpholin-4-yl-benzofuran-3-carboxylic acid methylamide]
EC50 [1, 2]: < 1000 nM
IC50 (HCV NS5B; [3]): ≤ 500 nM

CNC(=O)c1c(-c2ccccc2)oc2cc(OC)ccc12 [Example 67, 6-Methoxy-2-phenyl-benzofuran-3-carboxylic acid methylamide]
EC50 [1, 2]: < 10000 nM
IC50 (HCV NS5B; [3]): 500 to 5000 nM

CNC(=O)c1c(-c2ccc(F)cc2)oc2cc(-c3nc(C)nn3C)c(OC)cc12 [Example 387, 6-(2,5-Dimethyl-2H-[1,2,4]triazol-3-yl)-2-(4-fluoro-phenyl)-5-methoxy-benzofuran-3-carboxylic acid methylamide]
EC50 [1, 4]: < 10000 nM
IC50 (HCV NS5B; [5]): 500 to 5000 nM

CNC(=O)c1c(-c2ccc(F)cc2)oc2cc(NC)c(OC(C)C)cc12 [Example 19, 2-(4-Fluoro-phenyl)-5-isopropoxy-6-methylamino-benzofuran-3-carboxylic acid methylamide]
EC50 [1, 2]: < 1000 nM
IC50 (HCV NS5B; [3]): ≤ 500 nM

CNC(=O)c1c(-c2ccc(C#N)cc2)oc2ccc(OC(C)C)cc12 [Example 106, 2-(4-Cyano-phenyl)-5-isopropoxy-benzofuran-3-carboxylic acid methylamide]
EC50 [1, 6]: < 30000 nM
IC50 (HCV NS5B; HCV NS5B RdRp, BB7 genotype 1b): 500 to 5000 nM

CNC(=O)c1c(-c2ccc(F)cc2)oc2cc(C)c(OC)cc12 [Example 81, 2-(4-Fluoro-phenyl)-5-methoxy-6-methyl-benzofuran-3-carboxylic acid methylamide]
EC50 [1, 2]: < 10000 nM
IC50 (HCV NS5B; [3]): ≤ 500 nM

CNC(=O)c1c(-c2ccc(F)cc2)oc2cc(N(C)S(C)(=O)=O)c(OCc3c(C)noc3C)cc12 [Example 324, 5-(3,5-Dimethyl-isoxazol-4-ylmethoxy)-2-(4-fluoro-phenyl)-6-(methanesulfonyl-methyl-amino)-benzofuran-3-carboxylic acid methylamide]
EC50 [1, 7]: < 1000 nM
IC50 (HCV NS5B; [8]): ≤ 500 nM

CNC(=O)c1c(-c2cccs2)oc2ccc(OC)cc12 [Example 88, 5-Methoxy-2-thiophen-2-yl-benzofuran-3-carboxylic acid methylamide]
EC50 [1, 2]: < 30000 nM
IC50 (HCV NS5B; [3]): 500 to 5000 nM

CNC(=O)c1c(-c2ccccc2)oc2ccc(OC)cc12 [Example 452, 5-Methoxy-2-phenyl-benzofuran-3-carboxylic acid methylamide]
EC50 [1, 7]: > 10000 nM
IC50 (HCV NS5B; [9]): ≤ 500 nM

CNC(=O)c1c(-c2ccc(F)cc2)oc2cc(N(C)S(C)(=O)=O)c(OCC(=O)c3ccc(OC)cc3)cc12 [Example 355, 2-(4-Fluoro-phenyl)-6-(methanesulfonyl-methyl-amino)-5-[2-(4-methoxy-phenyl)-2-oxo-ethoxy]-benzofuran-3-carboxylic acid methylamide]
EC50 [1, 7]: < 1000 nM
IC50 (HCV NS5B; [10]): ≤ 500 nM

CCc1ccc2oc(-c3ccccc3)c(C(=O)NC)c2c1 [Example 84, 5-Ethyl-2-phenyl-benzofuran-3-carboxylic acid methylamide]
EC50 [1, 2]: < 30000 nM
IC50 (HCV NS5B; [3]): 500 to 5000 nM

CNC(=O)c1c(-c2ccc(F)cc2)oc2cc(CN3CCOCC3)c(OC(C)C)cc12 [Example 223, 2-(4-Fluoro-phenyl)-5-isopropoxy-6-morpholin-4-ylmethyl-benzofuran-3-carboxylic acid methylamide]
EC50 ([1]; HCV replicon, range of EC50): < 10000 nM
IC50 (HCV NS5B; [11]): 5000 to 30000 nM

CNC(=O)c1c(-c2ccc(N3CCCC3)cc2)oc2ccc(OC(C)C)cc12 [Example 95, 5-Isopropoxy-2-(4-pyrrolidin-1-yl-phenyl)-benzofuran-3-carboxylic acid methylamide]
EC50 [1, 6]: < 30000 nM
IC50 (HCV NS5B; HCV NS5B RdRp, BB7 genotype 1b): 5000 to 30000 nM

CNC(=O)c1c(-c2ccc(F)cc2)oc2cc(-c3c(C)noc3C)c(OCc3nccs3)cc12 [Example 410, 6-(3,5-Dimethyl-isoxazol-4-yl)-2-(4-fluoro-phenyl)-5-(thiazol-2-ylmethoxy)-benzofuran-3-carboxylic acid methylamide]
EC50 [1, 4]: < 1000 nM
IC50 (HCV NS5B; [5]): ≤ 500 nM

CNC(=O)c1c(-c2ccc(F)cc2)oc2cc(N3CCOCC3)c(OCc3ccc(C#N)cc3)cc12 [Example 213, 5-(4-Cyano-benzyloxy)-2-(4-fluoro-phenyl)-6-morpholin-4-yl-benzofuran-3-carboxylic acid methylamide]
EC50 ([1]; HCV replicon, range of EC50): < 10000 nM
IC50 (HCV NS5B; [11]): 500 to 5000 nM

CNC(=O)c1c(-c2ccc(F)cc2)oc2cc(NCCOC)c(OC(C)C)cc12 [Example 8, 2-(4-Fluoro-phenyl)-5-isopropoxy-6-(2-methoxy-ethylamino)-benzofuran-3-carboxylic acid methylamide]
EC50 [1, 2]: < 1000 nM
IC50 (HCV NS5B; [3]): ≤ 500 nM

CCc1cc2c(C(=O)NC)c(-c3ccc(F)cc3)oc2cc1N(CCO)S(C)(=O)=O [Example 46, 5-Ethyl-2-(4-fluoro-phenyl)-6-[(2-hydroxy-ethyl)-methanesulfonyl-amino]-benzofuran-3-carboxylic acid methylamide]
EC50 [1, 2]: < 1000 nM
IC50 (HCV NS5B; [3]): ≤ 500 nM

CNC(=O)c1c(-c2ccccc2)oc2ccc(CO)cc12 [Example 118, 5-Hydroxymethyl-2-phenyl-benzofuran-3-carboxylic acid methylamide]
EC50 [1, 6]: > 100000 nM
IC50 (HCV NS5B; HCV NS5B RdRp, BB7 genotype 1b): 5000 to 30000 nM

CNC(=O)c1c(-c2ccc(F)cc2)oc2cc(C3CCCN3C(=O)NC)c(OC)cc12 (stereo not shown) [Example 377, 2-[2-(4-Fluoro-phenyl)-5-methoxy-3-methylcarbamoyl-benzofuran-6-yl]-pyrrolidine-1-carboxylic acid methylamide]
EC50 [1, 7]: < 10000 nM
IC50 (HCV NS5B; [10]): ≤ 500 nM

CNC(=O)c1c(-c2ccc(F)cc2)oc2cc(N3CCOCC3)c(OC(C)c3nccs3)cc12 (stereo not shown) [Example 254, 2-(4-Fluoro-phenyl)-6-morpholin-4-yl-5-(1-thiazol-2-yl-ethoxy)-benzofuran-3-carboxylic acid methylamide]
EC50 [1, 7]: < 1000 nM
IC50 (HCV NS5B; [8]): ≤ 500 nM

CNC(=O)c1c(-c2ccc(F)cc2)oc2cc(N3CCCC(O)C3)c(OC(C)C)cc12 (stereo not shown) [Example 141, 2-(4-Fluoro-phenyl)-6-(3-hydroxy-piperidin-1-yl)-5-isopropoxy-benzofuran-3-carboxylic acid methylamide]
EC50 [1, 6]: < 10000 nM
IC50 (HCV NS5B; HCV NS5B RdRp, BB7 genotype 1b): 500 to 5000 nM

CC(C)NC(=O)c1c(-c2ccc(F)cc2)oc2cc(NS(C)(=O)=O)c(OC(C)C)cc12 [Example 197, 2-(4-Fluoro-phenyl)-5-isopropoxy-6-methanesulfonylamino-benzofuran-3-carboxylic acid isopropylamide]
EC50 ([1]; HCV replicon, range of EC50): < 10000 nM
IC50 (HCV NS5B; [11]): 5000 to 30000 nM

CNC(=O)c1c(-c2ccc(F)cc2)oc2cc(N3CCOCC3)c(OCc3nccs3)cc12 [Example 33, 2-(4-Fluoro-phenyl)-6-morpholin-4-yl-5-(thiazol-2-ylmethoxy)-benzofuran-3-carboxylic acid methylamide]
EC50 [1, 2]: < 1000 nM
IC50 (HCV NS5B; [3]): ≤ 500 nM

CNC(=O)c1c(-c2ccc(F)cc2)oc2cc(C3CCOC3)c(OC)cc12 (stereo not shown) [Example 442, 2-(4-Fluoro-phenyl)-5-methoxy-6-(tetrahydro-furan-3-yl)-benzofuran-3-carboxylic acid methylamide]
EC50 [1, 7]: < 1000 nM
IC50 (HCV NS5B; [9]): ≤ 500 nM

C=CCOc1cc2c(C(=O)NC)c(-c3ccc(F)cc3)oc2cc1N(CC=C)S(C)(=O)=O [Example 288, 6-(Allyl-methanesulfonyl-amino)-5-allyloxy-2-(4-fluoro-phenyl)-benzofuran-3-carboxylic acid methylamide]
EC50 [1, 7]: < 1000 nM
IC50 (HCV NS5B; [8]): ≤ 500 nM

CNC(=O)c1c(-c2ccc(F)cc2)oc2cc(N(CC(=O)O)S(C)(=O)=O)c(OC(C)C)cc12 [Example 189, {[2-(4-Fluoro-phenyl)-5-isopropoxy-3-methylcarbamoyl-benzofuran-6-yl]-methanesulfonyl-amino}-acetic acid]
EC50 ([1]; HCV replicon, range of EC50): < 1000 nM
IC50 (HCV NS5B; [11]): 500 to 5000 nM

CNC(=O)c1c(-c2ccc(F)cc2)oc2cc(N3CCOCC3)c(OCc3nnnn3C)cc12 [Example 209, 2-(4-Fluoro-phenyl)-5-(1-methyl-1H-tetrazol-5-ylmethoxy)-6-morpholin-4-yl-benzofuran-3-carboxylic acid methylamide]
EC50 ([1]; HCV replicon, range of EC50): < 10000 nM
IC50 (HCV NS5B; [11]): 500 to 5000 nM

CNC(=O)c1c(-c2ccc(F)cc2)oc2cc(N(C)S(C)(=O)=O)c(OCc3nsc(NCC4CC4)n3)cc12 [Example 374, 5-[5-(Cyclopropylmethyl-amino)-[1,2,4]thiadiazol-3-ylmethoxy]-2-(4-fluoro-phenyl)-6-(methanesulfonyl-methyl-amino)-benzofuran-3-carboxylic acid methylamide]
EC50 [1, 7]: < 1000 nM
IC50 (HCV NS5B; [10]): ≤ 500 nM
